According to ChEMBL document CHEMBL6153147 (J Med Chem, 2025):
Active and inactive are the calls of the source. The calls are words filed in the database; no cut-off is given here.

How the values were obtained:
[1] = Half life in C57BL/6 mouse at 1 mg/kg, iv measured for 0.5 to 12 htr by LC-MS/MS analysis; format: ADME, organism-based; conditions: in vivo, time 0.5-12 hrs
[2] = Selectivity ratio of IC50 for inhibition of human PLK3 using ATF2 as substrate to IC50 for inhibition of human PLK1 using ATF2 as substrate
[3] = Metabolic stability in dog liver microsomes assessed as intrinsic clearance preincubated for 5 mins followed by NADPH addition by LC-MS/MS analysis; format: ADME, Canis lupus familiaris, Microsome; conditions: read-out: CLH
[4] = Acute hematopoietic toxicity in mouse assessed as effect on white blood cells at 500 mg/kg, IG qd treated for 7 days; format: organism-based; conditions: in vivo, po, 168 h, time 7 day
[5] = target: Epidermal growth factor receptor (Homo sapiens) (UniProt P00533); test: Inhibition of human EGFR assessed as residual activity at 10 uM by kinome selectivity profiling analysis relative to control
[6] = Acute hematopoietic toxicity in mouse assessed as effect on red blood cells at 500 mg/kg, IG qd treated for 7 days; format: organism-based; conditions: in vivo, po, 168 h, time 7 day
[7] = Metabolic stability in human liver microsomes assessed as intrinsic clearance in microsome measured per mg protein preincubated for 5 mins followed by NADPH addition by LC-MS/MS analysis; format: ADME; conditions: read-out: CLH
[8] = Acute toxicity in mouse assessed as damage in liver at 500 mg/kg, IG qd treated for 7 days by H and E staining based analysis; format: organism-based; conditions: in vivo, po, 168 h, time 7 day
[9] = system: KG-1; test: cells; conditions: Homo sapiens
[10] = target: Cytochrome P450 2C8 (Homo sapiens, UniProt P10632); test: Inhibition of CYP2C8 in human liver microsomes using paclitaxel as substrate preincubated with compound followed by substrate addition measured after 10 mins in presence of NADPH by LC-MS/MS analysis; format: ADME, Microsome
[11] = system: PC-9; test: cells; conditions: Homo sapiens
[12] = target: Aurora kinase A (Homo sapiens) (UniProt O14965); test: Inhibition of human Aurora-A assessed as residual activity at 10 uM by kinome selectivity profiling analysis relative to control
[13] = target: Calcium/calmodulin-dependent protein kinase kinase 2 (Homo sapiens) (UniProt Q96RR4); test: Inhibition of human CaMKK2 assessed as residual activity at 10 uM by kinome selectivity profiling analysis relative to control
[14] = target: Cytochrome P450 2B6 (Homo sapiens, UniProt P20813); test: Inhibition of CYP2B6 in human liver microsomes using bupropion as substrate preincubated with compound followed by substrate addition measured after 10 mins in presence of NADPH by LC-MS/MS analysis; format: ADME, Microsome
[15] = target: Myosin-IIIb (Homo sapiens) (UniProt Q8WXR4); test: Inhibition of human MYO3B assessed as residual activity at 10 uM by kinome selectivity profiling analysis relative to control
[16] = Metabolic stability in dog liver microsomes assessed as half life preincubated for 5 mins followed by NADPH addition by LC-MS/MS analysis; format: ADME, Canis lupus familiaris, Microsome
[17] = Acute toxicity in mouse assessed as effect on behaviour at 500 mg/kg, IG qd treated for 7 days; format: organism-based; conditions: in vivo, po, 168 h, time 7 day
[18] = system: K562; test: Antitumor activity against human K562 cells xenografted in BALB/c mouse assessed as suppression of tumor growth administered intragastrically for 11 days treated on every 3 to 4 days; format: functional, cell-based; conditions: dose 10-20 mg/kg, route ig, time 11.0 day
[19] = MRT (0 to t) in C57BL/6 mouse at 10 mg/kg, po measured for 0.5 to 12 htr by LC-MS/MS analysis; format: ADME, organism-based; conditions: in vivo, time 0.5-12 hrs
[20] = target: Serine/threonine-protein kinase PLK3 (Homo sapiens, UniProt Q9H4B4); test: Inhibition of human PLK3 using ATF2 as substrate incubated for 40 mins in presence of [gamma-33P]ATP/Mg acetate by scintillation counting analysis
[21] = target: Cytochrome P450 3A4 (Homo sapiens, UniProt P08684); test: Inhibition of CYP3A4 in human liver microsomes using testosterone as substrate preincubated with compound followed by substrate addition measured after 10 mins in presence of NADPH by LC-MS/MS analysis; format: ADME, Microsome
[22] = Solubility of compound in 0.01 M PBS at pH 7.4 assessed as fold increase equilibrated for 12 hrs by UV spectrophotometry relative to BI 2536; format: physicochemical; conditions: buffer, pH 7.4, 12 h
[23] = Selectivity ratio of IC50 for inhibition of human PLK2 using ATF2 as substrate to IC50 for inhibition of human PLK1 using ATF2 as substrate
[24] = system: HEK-293T; test: Effect on mitochondrial membrane potential in HEK293T cells at 10 uM incubated for 24 hrs by MitoTracker Red probe based analysis; format: toxicity, cell-based; conditions: human
[25] = AUC (0 to infinity) in C57BL/6 mouse at 10 mg/kg, po measured for 0.5 to 12 htr by LC-MS/MS analysis; format: ADME, organism-based; conditions: in vivo, time 0.5-12 hrs
[26] = Acute toxicity in mouse assessed as damage in kidney at 500 mg/kg, IG qd treated for 7 days by H and E staining based analysis; format: organism-based; conditions: in vivo, po, 168 h, time 7 day
[27] = target: Voltage-gated inwardly rectifying potassium channel KCNH2 (Homo sapiens, UniProt Q12809); test: Inhibition of hERG transfected in CHO cells; format: toxicity, cell-based
[28] = Tmax in C57BL/6 mouse at 10 mg/kg, po measured for 0.5 to 12 htr by LC-MS/MS analysis; format: ADME, organism-based; conditions: in vivo, time 0.5-12 hrs
[29] = target: Eukaryotic translation initiation factor 2-alpha kinase 3 (Homo sapiens) (UniProt Q9NZJ5); test: Inhibition of human PEK assessed as residual activity at 10 uM by kinome selectivity profiling analysis relative to control
[30] = target: Serine/threonine-protein kinase PLK1 (Homo sapiens, UniProt P53350); test: Inhibition of human PLK1 assessed as residual activity at 10 uM by kinome selectivity profiling analysis relative to control
[31] = target: Cytochrome P450 1A2 (Homo sapiens, UniProt P05177); test: Inhibition of CYP1A2 in human liver microsomes using phenacetin as substrate preincubated with compound followed by substrate addition measured after 10 mins in presence of NADPH by LC-MS/MS analysis; format: ADME, Microsome
[32] = target: Serine/threonine-protein kinase PLK4 (Homo sapiens) (UniProt O00444); test: Inhibition of human PLK4 assessed as residual activity at 10 uM by kinome selectivity profiling analysis
[33] = Cmax in C57BL/6 mouse at 1 mg/kg, iv measured for 0.5 to […] htr by LC-MS/MS analysis; format: ADME, organism-based; conditions: in vivo, time 0.5-12 hrs
[34] = Stability of compound in human hepatocytes; format: ADME, cell-based, Hepatocyte
[35] = Oral bioavailability in C57BL/6 mouse at 10 mg/kg measured for 0.5 to […] htr by LC-MS/MS analysis; format: ADME, organism-based; conditions: in vivo, time 0.5-12 hrs
[36] = system: NCI-H460; test: cells; conditions: Homo sapiens
[37] = AUC (0 to t) in C57BL/6 mouse at 1 mg/kg, iv measured for 0.5 to […] htr by LC-MS/MS analysis; format: ADME, organism-based; conditions: in vivo, time 0.5-12 hrs
[38] = target: Serine/threonine-protein kinase PLK4 (Homo sapiens) (UniProt O00444); test: Inhibition of human PLK4 assessed as residual activity at 10 uM by kinome selectivity profiling analysis relative to control

Serine/threonine-protein kinase PLK4 (Homo sapiens), sequence (O00444 whole entry): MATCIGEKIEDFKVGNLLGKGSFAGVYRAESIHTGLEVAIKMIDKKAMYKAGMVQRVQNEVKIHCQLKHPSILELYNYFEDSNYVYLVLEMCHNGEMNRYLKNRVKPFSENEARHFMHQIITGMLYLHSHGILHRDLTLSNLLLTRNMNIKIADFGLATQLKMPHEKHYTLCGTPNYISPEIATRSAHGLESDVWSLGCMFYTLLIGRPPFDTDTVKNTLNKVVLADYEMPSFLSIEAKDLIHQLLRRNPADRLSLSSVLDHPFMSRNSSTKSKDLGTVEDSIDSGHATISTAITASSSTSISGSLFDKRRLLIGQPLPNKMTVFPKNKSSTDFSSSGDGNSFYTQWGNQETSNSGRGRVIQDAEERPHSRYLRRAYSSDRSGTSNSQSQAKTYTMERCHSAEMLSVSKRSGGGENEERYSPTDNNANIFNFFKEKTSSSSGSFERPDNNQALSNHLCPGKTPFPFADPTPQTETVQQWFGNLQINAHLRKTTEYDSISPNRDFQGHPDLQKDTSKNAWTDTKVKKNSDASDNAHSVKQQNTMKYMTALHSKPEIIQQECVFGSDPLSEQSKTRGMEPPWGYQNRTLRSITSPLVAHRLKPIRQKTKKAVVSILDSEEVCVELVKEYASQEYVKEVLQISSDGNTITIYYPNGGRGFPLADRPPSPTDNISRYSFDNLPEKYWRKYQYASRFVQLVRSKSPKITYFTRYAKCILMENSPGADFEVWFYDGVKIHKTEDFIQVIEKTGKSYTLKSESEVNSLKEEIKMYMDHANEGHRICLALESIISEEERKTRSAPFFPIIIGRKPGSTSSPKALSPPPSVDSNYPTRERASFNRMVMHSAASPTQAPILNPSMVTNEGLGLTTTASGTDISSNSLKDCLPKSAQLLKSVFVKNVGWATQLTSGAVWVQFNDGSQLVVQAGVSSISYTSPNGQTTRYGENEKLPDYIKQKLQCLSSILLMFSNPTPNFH
Serine/threonine-protein kinase PLK3, sequence (Q9H4B4 whole entry): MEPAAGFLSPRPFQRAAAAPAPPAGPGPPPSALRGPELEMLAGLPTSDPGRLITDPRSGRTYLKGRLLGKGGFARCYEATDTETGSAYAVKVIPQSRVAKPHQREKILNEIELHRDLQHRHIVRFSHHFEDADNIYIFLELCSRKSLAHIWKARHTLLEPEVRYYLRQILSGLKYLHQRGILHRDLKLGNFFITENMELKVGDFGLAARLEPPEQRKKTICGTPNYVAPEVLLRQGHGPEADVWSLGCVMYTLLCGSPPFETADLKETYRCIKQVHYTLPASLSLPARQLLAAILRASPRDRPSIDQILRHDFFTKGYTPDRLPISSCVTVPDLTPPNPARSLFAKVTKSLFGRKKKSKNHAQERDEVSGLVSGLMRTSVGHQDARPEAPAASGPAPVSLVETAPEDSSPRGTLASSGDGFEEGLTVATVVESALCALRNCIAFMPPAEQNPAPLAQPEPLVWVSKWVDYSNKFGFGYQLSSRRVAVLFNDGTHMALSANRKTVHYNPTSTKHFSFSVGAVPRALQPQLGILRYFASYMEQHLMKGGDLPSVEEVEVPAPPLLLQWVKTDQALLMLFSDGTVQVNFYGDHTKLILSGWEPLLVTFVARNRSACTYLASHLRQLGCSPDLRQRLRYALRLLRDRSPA
Myosin-IIIb (Homo sapiens), sequence (Q8WXR4 whole entry): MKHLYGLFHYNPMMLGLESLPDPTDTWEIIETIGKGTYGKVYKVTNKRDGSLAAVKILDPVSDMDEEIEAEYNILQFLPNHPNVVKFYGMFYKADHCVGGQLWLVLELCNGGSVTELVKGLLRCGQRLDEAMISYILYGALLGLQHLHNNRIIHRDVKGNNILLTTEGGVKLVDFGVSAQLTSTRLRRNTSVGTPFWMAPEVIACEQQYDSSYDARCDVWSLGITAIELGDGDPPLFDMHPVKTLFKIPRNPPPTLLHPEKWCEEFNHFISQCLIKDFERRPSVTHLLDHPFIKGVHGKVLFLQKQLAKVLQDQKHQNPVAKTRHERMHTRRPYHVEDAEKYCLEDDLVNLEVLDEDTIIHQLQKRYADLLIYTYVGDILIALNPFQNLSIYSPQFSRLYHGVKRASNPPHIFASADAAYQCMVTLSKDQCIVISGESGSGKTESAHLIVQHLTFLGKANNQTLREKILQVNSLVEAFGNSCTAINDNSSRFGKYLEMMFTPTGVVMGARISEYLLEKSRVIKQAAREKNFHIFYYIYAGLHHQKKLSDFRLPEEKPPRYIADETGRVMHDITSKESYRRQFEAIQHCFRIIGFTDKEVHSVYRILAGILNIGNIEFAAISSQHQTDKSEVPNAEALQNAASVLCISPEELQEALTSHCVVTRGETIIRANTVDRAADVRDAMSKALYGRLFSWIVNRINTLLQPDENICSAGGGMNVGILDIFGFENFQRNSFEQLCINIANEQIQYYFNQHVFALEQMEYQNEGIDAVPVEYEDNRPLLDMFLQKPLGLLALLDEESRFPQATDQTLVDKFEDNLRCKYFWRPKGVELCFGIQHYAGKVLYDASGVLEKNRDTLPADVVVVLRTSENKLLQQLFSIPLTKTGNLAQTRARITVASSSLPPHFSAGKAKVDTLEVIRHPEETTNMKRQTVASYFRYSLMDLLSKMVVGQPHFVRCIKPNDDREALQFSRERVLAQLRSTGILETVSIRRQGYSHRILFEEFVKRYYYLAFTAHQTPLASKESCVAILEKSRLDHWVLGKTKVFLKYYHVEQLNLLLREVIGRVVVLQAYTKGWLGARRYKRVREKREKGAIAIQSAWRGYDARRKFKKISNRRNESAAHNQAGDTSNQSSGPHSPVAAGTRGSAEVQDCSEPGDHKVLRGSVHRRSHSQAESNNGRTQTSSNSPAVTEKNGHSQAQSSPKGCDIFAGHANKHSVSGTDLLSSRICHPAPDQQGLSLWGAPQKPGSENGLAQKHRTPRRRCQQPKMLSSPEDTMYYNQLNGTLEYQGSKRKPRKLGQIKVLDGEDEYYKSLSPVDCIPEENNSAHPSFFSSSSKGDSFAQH
Cytochrome P450 1A2, sequence (P05177 whole entry): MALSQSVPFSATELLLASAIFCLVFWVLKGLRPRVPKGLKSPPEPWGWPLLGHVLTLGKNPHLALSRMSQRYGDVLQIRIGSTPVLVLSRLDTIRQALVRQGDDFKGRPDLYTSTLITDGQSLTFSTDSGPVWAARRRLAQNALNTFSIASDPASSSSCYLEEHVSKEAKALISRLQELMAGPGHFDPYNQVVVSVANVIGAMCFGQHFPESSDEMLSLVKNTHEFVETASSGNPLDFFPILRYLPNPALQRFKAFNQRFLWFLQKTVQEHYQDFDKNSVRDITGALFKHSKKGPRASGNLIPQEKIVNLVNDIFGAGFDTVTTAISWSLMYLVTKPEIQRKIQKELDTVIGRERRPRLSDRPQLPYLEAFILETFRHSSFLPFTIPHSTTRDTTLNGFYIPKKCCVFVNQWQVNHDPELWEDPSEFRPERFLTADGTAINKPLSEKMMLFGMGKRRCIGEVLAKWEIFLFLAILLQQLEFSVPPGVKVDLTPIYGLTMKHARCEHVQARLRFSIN
Voltage-gated inwardly rectifying potassium channel KCNH2, sequence (Q12809 whole entry): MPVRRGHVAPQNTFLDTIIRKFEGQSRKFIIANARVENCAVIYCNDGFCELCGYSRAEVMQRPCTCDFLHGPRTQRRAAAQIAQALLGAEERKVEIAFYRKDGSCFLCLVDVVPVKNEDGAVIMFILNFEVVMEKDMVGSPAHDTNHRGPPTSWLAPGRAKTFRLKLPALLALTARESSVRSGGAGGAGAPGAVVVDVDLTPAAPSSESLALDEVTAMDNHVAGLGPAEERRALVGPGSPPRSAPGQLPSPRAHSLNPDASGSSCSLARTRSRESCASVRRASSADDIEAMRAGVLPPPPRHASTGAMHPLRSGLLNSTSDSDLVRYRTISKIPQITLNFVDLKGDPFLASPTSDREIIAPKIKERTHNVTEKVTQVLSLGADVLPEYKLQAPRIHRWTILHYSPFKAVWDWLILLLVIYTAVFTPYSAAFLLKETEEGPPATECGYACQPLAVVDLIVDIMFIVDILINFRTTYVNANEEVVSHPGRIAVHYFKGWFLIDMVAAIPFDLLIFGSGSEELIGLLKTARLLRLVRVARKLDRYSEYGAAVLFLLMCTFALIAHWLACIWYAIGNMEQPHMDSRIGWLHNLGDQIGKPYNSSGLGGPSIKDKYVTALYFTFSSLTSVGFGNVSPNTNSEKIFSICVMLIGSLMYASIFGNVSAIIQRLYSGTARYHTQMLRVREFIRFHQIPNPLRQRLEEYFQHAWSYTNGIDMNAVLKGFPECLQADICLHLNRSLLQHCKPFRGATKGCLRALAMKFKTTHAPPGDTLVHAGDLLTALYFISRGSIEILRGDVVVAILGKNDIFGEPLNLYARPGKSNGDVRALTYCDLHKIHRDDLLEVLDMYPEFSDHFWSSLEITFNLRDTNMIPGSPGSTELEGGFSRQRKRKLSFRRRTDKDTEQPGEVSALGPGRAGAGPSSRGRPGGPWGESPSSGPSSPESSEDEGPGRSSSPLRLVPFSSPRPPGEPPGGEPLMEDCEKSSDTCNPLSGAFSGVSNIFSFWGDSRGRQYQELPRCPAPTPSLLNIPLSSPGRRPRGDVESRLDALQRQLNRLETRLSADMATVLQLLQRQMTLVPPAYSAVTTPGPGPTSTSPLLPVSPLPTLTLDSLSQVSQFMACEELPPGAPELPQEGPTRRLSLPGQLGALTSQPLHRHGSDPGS
Aurora kinase A (Homo sapiens), sequence (O14965 whole entry): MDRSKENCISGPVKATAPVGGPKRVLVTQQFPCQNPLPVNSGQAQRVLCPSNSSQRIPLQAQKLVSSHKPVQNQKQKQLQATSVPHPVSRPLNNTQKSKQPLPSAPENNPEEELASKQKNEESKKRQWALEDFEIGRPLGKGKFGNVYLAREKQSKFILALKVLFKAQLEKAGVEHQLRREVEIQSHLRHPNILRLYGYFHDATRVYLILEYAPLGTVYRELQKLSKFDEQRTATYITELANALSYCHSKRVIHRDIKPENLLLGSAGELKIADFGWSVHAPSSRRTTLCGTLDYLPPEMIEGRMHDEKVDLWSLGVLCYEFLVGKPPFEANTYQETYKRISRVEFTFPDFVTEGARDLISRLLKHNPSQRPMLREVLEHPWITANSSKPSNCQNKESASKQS

## CC[C@@H]1C(=O)N(C)c2cnc(Nc3cc(N4CCN(C)CC4)cc(Cl)c3OCCCO)nc2N1C1CCCC1
[1]
  half-life: 35.4 min
[2]
  ratio: 197
[3]
  CLint scaled: 474 mL/min/kg
[4]
  Activity: Non-toxic
[5]
  Activity: 107%
[6]
  Activity: Non-toxic
[7]
  microsomal CLint: 68.3 µL/min/mg
[8]
  Activity: Non-toxic
[9]
  IC50: > 10 µM
[10]
  IC50: > 10 µM
[11]
  IC50: 775 nM
[12]
  Activity: 110%
[13]
  Activity: 73%
[14]
  IC50: > 10 µM
[15]
  Activity: 44%
[16]
  half-life: 17.3 min
[17]
  Activity: Non-toxic
[18]
  Activity: Dose-dependent-effect; Demonstrated Comparable Or Remarkably Improved Therapeutic Efficacy Compared To Bi 2536 At 10 Mg/Kg (I.P.)
[19]
  MRT last: 2 h
[20]
  IC50: 3.95 µM
[21]
  IC50: > 10 µM
[22]
  fold change (FC): > 2
[23]
  ratio: > 601
[24]
  Activity: Non-toxic
[25]
  AUC(0-inf): 825 ng·h/mL
[26]
  Activity: Non-toxic
[27]
  IC50: 44.2 µM
[28]
  Tmax: 45 min
[29]
  Activity: 80%
[30]
  Activity: -2%
[31]
  IC50: > 10 µM
[32]
  inhibition: inactive
[33]
  Cmax: 264 ng/mL
[34]
  Stability: Stable
[35]
  bioavailability: 45%
[36]
  IC50: 12 nM
[37]
  AUC(0-t): 181 ng·h/mL
[38]
  Activity: 104%
